Assay [1] relates to Puccinia recondita. As to the kind of experiment: Curative control of brown rust on wheat caused by Puccinia recondita. In kind it is in vivo. Conditions: assessed after 8 days, efficacy in % of untreated control (90% infection), read-out: Observed activity (% infection); for inhibition at 0.063 ppm: 192 h; for inhibition at 0.25 ppm: sprayed 1 day after inoculation. As to the method:
(§1) The active compounds were prepared as a stock solution comprising 25 mg of N-(trans-2-bicycloprop-2-ylphenyl)-3-difluoromethyl-1-methyl-1H-pyrazole-4-carboxamide (Ia), which was made up to 10 ml using a mixture of acetone and/or dimethyl sulfoxide and the emulsifier Wettol® EM31 (wetting agent having an emulsifying and dispersing action based on ethoxylated alkylphenols) in a ratio by volume of solvent/emulsifier of 99:1. The mixture was then made up to 100 ml with water. This stock solution was diluted with the solvent/emulsifier/water mixture described to give the concentration of active compound stated below. Epoxiconazole and metconazole were employed as a commercial finished formulation and diluted with water to the stated concentration of active compound.
(§2) The visually determined percentages of infected leaf areas were converted into efficacies in % of the untreated control.
(§3) The efficacy (E) is calculated as follows using Abbot's formula: […]
(§4) αcorresponds to the fungicidal infection of the treated plants in % and βcorresponds to the fungicidal infection of the untreated (control) plants in %
(§5) An efficacy of 0 means that, the infection level of the treated plants corresponds to that of the untreated control plants; an efficacy of 100 means that the treated plants were not infected.
(§6) The expected efficacies of active compound combinations were determined using Colby's formula (Colby, S.R. “Calculating synergistic and antagonistic responses of herbicide combinations”, Weeds, 15, pp. 20-22, 1967) and compared with the observed efficacies.
(§7) Colby's formula: E=x+y−x•y/100 • E expected efficacy, expressed in % of the untreated control, when using the mixture of the active compounds A and B at the concentrations a and b • x efficacy, expressed in % of the untreated control, when using the active compound A at the concentration a • y efficacy, expressed in % of the untreated control, when using the active compound B at the concentration b
The first two developed leaves of pot-grown wheat seedling were dusted with spores of Puccinia recondita. To ensure the success the artificial inoculation, the plants were transferred to a humid chamber without light and a relative humidity of 95 to 99% and 20 to 22° C. for 24 h. The next day the plants were sprayed to run-off with an aqueous suspension, containing the concentration of active ingredient as described below. The plants were allowed to air-dry. Then the trial plants were cultivated for 8 days in a greenhouse chamber at 22-26° C. and a relative humidity between 65 and 70%. The extent of fungal attack on the leaves was visually assessed as % diseased leaf area. The expected efficacies of mixtures of active compounds were determined using Colby's formula and compared with the observed efficacies.

Assay [2] relates to Puccinia recondita. Kind of assay: Preventative control of brown rust on wheat caused by Puccinia recondita. The format is in vivo. Conditions: efficacy in % of untreated control (90% infection), read-out: Observed activity (% infection); for inhibition at 1 ppm: sprayed 1 day before inoculation. As to the method:
as §1, §2, §3, §4, §5, §6, §7
The first two developed leaves of pot-grown wheat seedling were sprayed to run-off with an aqueous suspension, containing the concentration of active ingredient as described below. The next day the plants were inoculated with spores of Puccinia recondita. To ensure the success the artificial inoculation, the plants were transferred to a humid chamber without light and a relative humidity of 95 to 99% and 20 to 22° C. for 24 h. Then the trial plants were cultivated for 6 days in a greenhouse chamber at 22-26° C. and a relative humidity between 65 and 70%. The extent of fungal attack on the leaves was visually assessed as % diseased leaf area.
The expected efficacies of mixtures of active compounds were determined using Colby's formula and compared with the observed efficacies.

With `Fc1ccc([C@]2(Cn3cncn3)O[C@H]2c2ccccc2Cl)cc1` (racemic) [epoxiconazole], the inhibition at 0.063 ppm in the assay with Puccinia recondita [1] was 22%.

As to `Cn1cc(C(=O)Nc2ccccc2[C@@H]2C[C@H]2C2CC2)c(C(F)F)n1` [Compound (Ia), N-(trans-2-bicycloprop-2-ylphenyl)-3-difluoromethyl-1-methyl-1H-pyrazole-4-carboxamide], the inhibition at 0.25 ppm with Puccinia recondita [2] (0.25 ppm) was found to be 0%. Moreover, in the assay with Puccinia recondita [2], the inhibition at 1 ppm was 22%. For the same compound, in the assay with Puccinia recondita [1], the inhibition at 0.063 ppm is 0% and the inhibition at 0.25 ppm came out at 0%.

For `CC1(C)CCC(Cc2ccc(Cl)cc2)C1(O)Cn1cncn1` (centres unmarked) [metconazole], the inhibition at 0.063 ppm in the assay on Puccinia recondita [2] (0.063 ppm) is 0%. In addition, the inhibition at 1 ppm in the assay on Puccinia recondita [2] amounted to 0%. For the same compound, the inhibition at 0.25 ppm in the assay on Puccinia recondita [1] came out at 44%.
